By IC50 is commonly meant the concentration that gives 50% inhibition.

Where two headings read alike, the source gives them in different places.

We go through one compound from patent US6159953A, “Anti-malarial composition and method of use” (Catholic University of America, priority 1992, dated 2000).

Common to all, as to type: cell-based
Series [1] relates to HT-1080 human fibrosarcoma cells. Kind of series: Toxicity to cultured HT-1080 cells, number of viable cells. The conditions noted are these: for IC50: Homo sapiens. On the procedure: Each data point represents an average of two determinations. […] Each data point represents an average of two determinations.
Half shaded symbols represent overlapping data points.
Toxicity of pyrimidine analogues to cultured human cells is determined as follows. Mammalian cells are seeded into culture plate wells, and growth medium is added. The following day, fresh culture medium containing the appropriate pyrimidine analogues is added to the wells, and the plates incubated for a period of time and at a temperature appropriate to the cell line and the experimental requirements. Thereafter, the number of cells in each well is determined. […] Cells that grow in suspension (e.g., HL-60 and L-1210 cells) are transferred to centrifuge tubes, pelleted at low speed, washed, and the viability determined as above.
HT-1080 cells were seeded into 6-well culture plates at a density of 50,000 cells per 9.6 cm^2 well. Each well contained 2.5 ml of growth medium. […] After 1 minute, the detached cells were suspended in 1.0 ml of EMEM and collected by centrifugation at 300×g for 3 minutes. […] The concentrations of viable cells were determined in a hemocytometer.

Series [2] concerns IMR-90 human lung fibroblast cells. Kind of series: Toxicity to cultured IMR-90 cells, number of viable cells. From the text: (§1) 2. Effects of orotate analogues on cell viability and the ability to synthesize nucleic acids from radioactive precursors, and the rescuing effects of normal pyrimidine bases or nucleosides or amino acid derivatives such as histidinol, can be tested in human-derived tissue culture cell lines. Human HT-1080 human sarcoma cells [Rusheed, S., et al., Cancer, 33:1027-30 (1974)], human diploid IMR-90 cells [Nichols, W. W., et al., Science, 196:60-3 (1977)], human cervical […] HeLa S3 cells [Puck, T. T., et al., J. Exp. Med., 103:273-84 (1956)], HL-60 human myeloid leukemia cells [Collins, S. J., et al., Nature, 270:347-9 (1977)], and mouse leukemia L-1210 cells [Moore, G. E., J. Nat. […] The growth medium most suitable for each cell line can be determined by reference to the publications cited above: briefly, HT-1080 cells are maintained in Eagle's Minimal Essential Medium (EMEM) supplemented with 5% fetal bovine serum (FBS) and 2 mM L-glutamine; IMR-90 cells are grown in EMEM supplemented with 10% FBS, 10 mM Hepes buffer, 0.21% NaHCO3, and 2 mM L-glutamine. […]
(§2) Toxicity of pyrimidine analogues to cultured human cells is determined as follows. […] Thereafter, the number of cells in each well is determined. […] Cells that grow in suspension (e.g., HL-60 and L-1210 cells) are transferred to centrifuge tubes, pelleted at low speed, washed, and the viability determined as above. […]

Series [3] has as its system HeLa S3 human cervix epithelioid carcinoma cells. Kind of series: Toxicity to cultured HeLa S3 cells, number of viable cells.
Source text: as §1, §2

The subject of series [4] is HL-60 human promyelocytic leukemia cells. Kind of series: Toxicity to cultured HL-60 cells, number of viable cells.
Source text: as §1, §2

Take `O=C(O)c1[nH]c(=O)[nH]c(=O)c1F` [5-fluoro-orotate]: the “decrease of cytotoxicity by 1 mM uridine” value in series [1] (HT-1080, 48 h, simultaneous 1 mM uridine (FIG. 2)) is given as 5 -fold. Also, the half-maximal inhibitory concentration (IC50) is around 10 µM in series [1] (HT-1080, 48 h, read-out: IC50 (50% inhibition)); 50 µM in series [1] (HT-1080, read-out: IC50 With 1 mM Uridine); 10 µM in series [1] (HT-1080, read-out: IC50 Without Uridine); 2.2 µM in series [2] (IMR-90, with 1 mM uridine, read-out: IC50 With 1 mM Uridine); 1.1 µM in series [2] (IMR-90, without uridine, read-out: IC50 Without Uridine); 3.5 µM in series [3] (HeLa S3, with 1 mM uridine, read-out: IC50 With 1 mM Uridine). The IC50 was 2 µM in series [3] (HeLa S3, without uridine, read-out: IC50 Without Uridine); 4.5 µM in series [4] (HL-60, with 1 mM uridine, read-out: IC50 With 1 mM Uridine); 0.9 µM in series [4] (HL-60, without uridine, read-out: IC50 Without Uridine).
